The text below walks through data of patent US9734283B2, “Genomic features associated with epigenetic control regions and transgenerational inheritance of epimutations” (priority 2011, dated 2017).

Series [1] relates to testicular spermatogenic cells. The experiment in a line: Testicular spermatogenic cell apoptosis (TUNEL assay), F1-F3 lineage after F0 gestational exposure. The series is classed as in vivo, mouse. Particulars: 129 strain, flutamide 20 mg/kg/day IP to F0 E7-E13; any age or generation analyzed; vs control. The procedure:
(§1) The experimental design involved exposing gestating female inbred 129 strain and outbred CD-1 strain mice to daily intraperitoneal (IP) injections of vehicle (DMSO) (control) or vinclozolin at two doses, 100 mg/kg/day (V1) or 200 mg/kg/day (V2), between embryonic day 7-13 of gestation. In addition, a comparison was used with flutamide IP injections at a 20/mg/kg/day dose. The F1 generation males and females from different litters were bred to generate the F2 generation animals and F2 generation males and females from different litters were bred to generate the F3 generation animals, see Methods below. No sibling or cousin breedings occurred to avoid any inbreeding artifacts. Selected F1, F2 and F3 generation animals from postnatal 90 (P90) or 300 (P300) days of age were analyzed for testis, sperm and other pathologies as previously described.^11, 20, 21
Timed pregnant inbred 129 mice were given intraperitoneal injections with vinclozolin (100 mg/kg·day, 99% pure; ChemService, West Chester, Pa.), flutamide (20 mg/kg·day, Sigma, St. Louis, Mo.) or DMSO in sesame oil (vehicle) as controls, while timed pregnant outbred CD-1 mice were given intraperitoneal injections (IP) with vinclozolin doses: 100 mg/kg·day (V1) or 200 mg/kg·day (V2) or DMSO in sesame oil as controls.^21 Mice were given injections from embryonic day (E) E7-E13, with plug date equal to day 0. Controls were injected with vehicle (DMSO) dose and were matched with vinclozolin or flutamide treatment animals within the same mouse strain at the time of injection and were analyzed together throughout all three generations. […] Male mice were collected and analyzed between P60-P90 (P90) for all generations and treatment groups. […]

The next series has as its system 129 and CD-1 mice. The experiment in a line: Litter size, sex ratio, body and tissue weights (toxicity). The series is classed as in vivo, mouse. Conditions: transient embryonic exposure. The procedure: as §1
Timed pregnant inbred 129 mice were given intraperitoneal injections with vinclozolin (100 mg/kg·day, 99% pure; ChemService, West Chester, Pa.), flutamide (20 mg/kg·day, Sigma, St. Louis, Mo.) or DMSO in sesame oil (vehicle) as controls, while timed pregnant outbred CD-1 mice were given intraperitoneal injections (IP) with vinclozolin doses: 100 mg/kg·day (V1) or 200 mg/kg·day (V2) or DMSO in sesame oil as controls.^21 Mice were given injections from embryonic day (E) E7-E13, with plug date equal to day 0. Controls were injected with vehicle (DMSO) dose and were matched with vinclozolin or flutamide treatment animals within the same mouse strain at the time of injection and were analyzed together throughout all three generations. The number of treated gestating females used were: for mouse 129 strain (3 controls and 4 vinclozolin treated); for mouse 129 strain flutamide 20 mg/kg/day dose (3 controls and 3 flutamide treated); and for mouse CD-1 strain (4 control and 3 vinclozolin treated (100 mg/kg/day (V1), 3 vinclozolin 200 mg/kg/day (V2)). F1 postnatal (P)P90 males and females from different litters of control, vinclozolin and flutamide treatment groups were bred to generate the F2 generation. F2 generation mice were bred to generate the F3 generation. Breedings were carefully monitored to eliminate any sibling or cousin breeding to remove potential phenotypes as a result of inbreeding. Male mice were collected and analyzed between P60-P90 (P90) for all generations and treatment groups. The number of P90 males collected for replicates for the mouse 129 strain vinclozolin treatment group (i.e. n value) were: for F1 (8 control, 11 vinclozolin); for F2 (11 control, 22 vinclozolin); and for F3 (11 control, 11 vinclozolin). […]

For another series, the system named is caudal epididymal sperm. Kind of series: Epididymal sperm motility and concentration analyses. Format: in vivo, mouse. Conditions: primarily in the F1 generation males. The procedure:
The sperm motility was determined using caudal epididymal sperm. The epididymis was dissected free of connective tissue and a small cut made to the cauda. The tissue was placed in 2 ml F12 culture medium containing 0.1% BSA for 10 minutes at 37° C. Fifty microliters was placed on a warm slide and gently cover-slipped. The specimen was immediately examined using phase contrast microscopy with 200×magnification. The sperm motility assays examined rapid progressive, slow progressive and non-progressive motility according to WHO category.^51 The ratio of motile sperm to the total number of sperm, including immotile sperm, was calculated. Approximately 50-100 sperm were counted per microscopic field. The procedure was repeated at least twice with a new specimen from the same epididymis. Epididymal sperm count was determined using the same epididymis according to a previously described method with some modifications.^25, 52 Briefly, the epididymis that was placed in the 2 ml of culture medium was minced. The tissue pieces were stored at 4° C. for 48 hours to immobilize the sperm. Three independent sperm samples were counted using a hemocytometer. The counts were averaged and used as a replicate in statistical analysis. The control and vinclozolin generation analysis and the control and flutamide generation analysis for an individual experiment were done at the same time. All analyses were done blinded, such that different individuals were used for collection and counting.

Series [2] is described as follows: Serum hormone levels, F3 generation. The series is classed as in vivo, rat. Particulars: F3 generation males. The procedure: Both female and male rats of F1, F2 and F3 generation at 90-120 days of age were euthanized by CO2 inhalation and cervical dislocation for dissection, collection and examination of tissues including testis, epididymis, and ovary. Body and tissue weights were measured at dissections. Blood samples were collected, allowed to clot, centrifuged and serum samples stored for hormone assays. Tissues were fixed in Bouins solution (Sigma) and 70% ethanol, then processed for paraffin embedding by standard procedures for histopathology examination. Five-micrometer sections were made and were either unstained or stained with H & E stain.

For series [3], the system named is Harlan Sprague Dawley rats. Kind of series: Onset of puberty in F1-F3 generation after F0 gestational exposure. The series is classed as in vivo, rat. An excerpt:
At proestrus as determined by daily vaginal smears, the female rats, (90 days) were pair-mated with male rats (120 days). On the next day, the females were separated and their vaginal smears were examined microscopically and if they were sperm-positive (day 0) the rats were tentatively considered pregnant and then weighed with a digital animal weighing balance to monitor increases in body weight. Vaginal smears were continued for monitoring diestrus status in these rats until day 7. […] These pregnant rats were then given daily intraperitoneal injections of any one of the following single chemicals or mixtures with an equal volume of sesame oil (Sigma) on days E-8 through E-14 of gestation. Treatment groups were Control, Pesticide (Permethrin+DEET), Plastics (Bisphenol-A, DBP and DEHP), Dioxin (TCDD), and Jet Fuel (JP8 hydrocarbon). The pregnant female rats treated with various mixtures were designated as the F0 generation. When there was a drop in the litter size and the sex ratio of pups in F1 generation of Plastics group, another treatment group was included with only half the dose of Bisphenol-A, DBP and DEHP and this group was designated ‘Low Dose Plastics’ group.
The offspring of the F0 generation were the F1 generation. Likewise F2 and F3 generation offspring were generated. These rats were weaned from their mothers at 21 days of age. At weaning, the following weaning traits were measured; litter size, sex ratio, weaning weight (in grams), and anogenital index (AGI). […] Weaning weights of rats were measured by a digital balance. AGI was computed as the AGD in mm (from the bottom of the anal opening to the top of the genital opening) per gram of body weight at weaning. Starting at the age of 30 days for females and 35 days for males, puberty checks were performed. These checks were performed on a daily basis until puberty in each rat was confirmed. Onset of puberty for females was indicated by a clear vaginal opening, and for males it was indicated when the glans penis was able to fully extend free of the preputial fold (balano-preputial separation).

Series [4] concerns sperm promoter epigenome (DNA methylation). Kind of series: MeDIP-Chip analysis of F3 generation sperm promoter DNA methylation. Format: in vivo, rat. Particulars: F3 generation sperm vs vehicle control; p<10^-5. The procedure: Sperm heads were separated from tails through sonication following previously described protocol (without protease inhibitors) and then purified using a series of washes and centrifugations from a total of nine F3 generation rats per treatment lineage that were 120 days of age. DNA extraction on the purified sperm heads was performed as previously described. Equal concentrations of DNA from individual sperm samples were then used to produce pools of DNA material. Three DNA pools were produced in total per treatment, which contained the same amount of sperm DNA from three animals. Therefore a total of 45 animals were used for building three DNA pools per treatment for the 4 experimental groups plus controls. These DNA pools were then used for methylated DNA immunoprecipitation (MeDIP). MeDIP was performed as follows: 6 μg of genomic DNA was subjected to series of three 20 pulse sonications at 20% amplitude and the appropriate fragment size ([…]) was verified through 2% agarose gels; the sonicated genomic DNA was resuspended in 350 ul TE and denaturated for 10 min at 95° C. and then immediately placed on ice for 5 min; 100 ul of 5×IP buffer (50 mM Na-phosphate pH7, 700 mM NaCl, 0.25% Triton X-100) was added to the sonicated and denatured DNA. […]

Where [5] appears, read: transgenerational F3 generation.

Entries after “also recorded” stand apart in the source; their conditions may differ.

For the compound `CC(C)C(=O)Nc1ccc([N+](=O)[O-])c(C(F)(F)F)c1` [flutamide], in series [1], the “apoptotic germ cells in the testis” value is given as “no differences”. For the same compound, the “body weight, testis weight index, or kidney weight index” value with 129 and CD-1 mice (F1-F3) is recorded as “no consistent transgenerational differences”. For the same compound, the “litter size or male/female sex ratio” value in the series with 129 and CD-1 mice (all generations analyzed) is reported as “no consistent transgenerational effects”. In the series with caudal epididymal sperm, the “mean percentage of motile epididymal sperm” value is given as “reduction”.

Take `Clc1cc2c(cc1Cl)Oc1cc(Cl)c(Cl)cc1O2` [dioxin, 2,3,7,8-tetrachlorodibenzo-p-dioxin]: the testosterone levels entry in series [2] is reported as “reduction”. In series [3] (F2 generation), the “onset of puberty for females” value is reported as “early onset” and the “onset of puberty in males” value was “early onset”. Besides, in series [3] (setting [5]), the “onset of puberty in females” value is “early onset; also recorded: advanced” and the “onset of puberty in males” value was “no effect”. In series [4], the “number of DMR” value is listed as 50.
